pIC50: −log10 of the molar value. “And” between values parts separate entries of the source, which are not always exact repeats. Equal entries are not always repeated.
Tested on: K24384-001-R-PDC complex spheroid growth
Experiment: Anticancer human tumor K24384-001-R-PDC patient-derived pancreatic adenocarcinoma cell line growth inhibition [AhR]
Conditions: for viability, T/C: stronger effect = lower value
Description: Multicellular complex tumor spheroid response to aryl hydrocarbon receptor antagonists in combination with a variety of drugs and investigational agents in selected tumor cell lines
The current study was undertaken to assess response to aryl hydrocarbon receptor antagonists in combination with standard-of-care drugs and investigational agents in solid tumor complex spheroid models. Complex spheroids include a stromal component modeled by human endothelial cells (HUVEC) and fibroblasts modeled by human mesenchymal stem cells (MSCs). The concentration ranges selected for each drug and investigational agent were based upon clinically achievable concentrations if the clinical Cmax of the agent was known.
Compounds. The drugs and investigational agents: BAY 2416964 (NSC825713), GNF351 (NSC835774), CH-223191 (NSC835775), CPI-455 (NSC825282), aza-TdCyd (NSC777586), decitabine (NSC127716), belinostat (NSC758774), entinostat (NSC756642), pevonedistat (NSC761192), tazemetostat (NSC777109), talazoparib (NSC765396), olaparib (NSC753686), selinexor (NSC780203), nedisertib (M3814, NSC802822), bortezomib (NSC756655), venetoclax (NSC766270), doxorubicin (NSC123127), elimusertib (BAY189344, NSC800525), ceralasertib (AZD6738, NSC777638), TAK-243 (NSC785004), alisertib (NSC759677), etoposide (NSC141540), topotecan (NSC609699), eribulin (NSC707389), gemcitabine (NSC613327), carboplatin (NSC241240), cisplatin (NSC119875), and SN-38 (NSC673596) were obtained from the National Cancer Institute (NCI) Developmental Therapeutics Program Chemical Repository (32). The FDA-approved anticancer drug set is available from the Developmental Therapeutics Program at https://dtp.cancer.gov/organization/dscb/obtaining/available plates.htm. […] The stock solutions were prepared in dimethyl sulfoxide (DMSO, Sigma-Aldrich, St. Louis, MO, cat. D2650), except for the platinum compounds which were prepared in saline (Quality Biological, Gaithersburg, MD, cat. 114-055-101), at 800-fold the tested concentration and stored at -70 degrees C prior to their use. All drugs and investigational agents were tested over a range starting from a high concentration at or near the clinical Cmax and decreasing in half-log increments. If the clinical Cmax for an agent had not been determined, the highest concentration tested was 10 microM (Table 1).
Cell Culture. All cells were maintained in an incubator at 37 degrees C and 5% CO2 with 95% humidity. The PDC lines were cultured according to standard operating procedures established by the NCI PDMR (https://pdmr.cancer.gov). Briefly, all PDCs were thawed and cultured in Matrigel-coated flasks prepared with a working solution of 1X Ham's F-12 nutrient mix, without supplementation (Invitrogen, Waltham, MA, cat. 11765054), 100 U/mL penicillin-streptomycin (Invitrogen, cat. 15140122), and 2.5% Matrigel (Corning Inc., Corning, NY, cat. 354248) for the first three passages. All PDCs were cultured in complete DMEM/F-12 media containing advanced DMEM/F-12 (Invitrogen, cat. 12634028), 4.9% defined fetal bovine serum, heat inactivated (HyClone Laboratories Inc., Logan, UT, cat. SH30070.03HI), 389 ng/mL hydrocortisone (Sigma-Aldrich, cat. H4001), 9.7 ng/mL human EGF recombinant protein (Invitrogen, cat. PHG0313), 23.4 microg/mL adenine (Sigma-Aldrich, cat. A2786), 97.3 U/mL penicillin-streptomycin (Invitrogen, cat. 15140122), 1.9 mM L-glutamine (Invitrogen, cat. 25030081), and 9.7 microM Y-27632 dihydrochloride (Tocris Bioscience, Bristol, United Kingdom, cat. 1254). The PDCs were cultured in complete DMEM/F12 media without 10 microM Y-27632 dihydrochloride for at least two passages prior to the screen. The established cell lines NCI-H1341 and […] were cultured in DMEM/F-12, HEPES (Invitrogen, cat. 11330032), 5% defined fetal bovine serum (HyClone Laboratories Inc., cat. SH30070.03), ITS premix universal culture supplement [insulin (5 microg/mL), transferrin (5 microg/mL), and selenious acid (5 ng/mL)] […]
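Throughout, for viability, T/C: percent of DMSO vehicle-treated spheroid viability set as 100%.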

CC(C)CC(NC(=O)C(Cc1ccccc1)NC(=O)c1cnccn1)B(O)O (stereo not drawn)
viability, T/C (compound 0.000949 µM): 105% and 92.1% and 95.6%
viability, T/C (compound 0.003 µM): 108% and 98.8% and 96.7%
viability, T/C (compound 0.00949 µM): 62.6% and 70.1% and 20.1%
viability, T/C (compound 0.03 µM): 2.24% and 1.22% and 0.66%
viability, T/C (compound 0.0949 µM): 0.59% and 0.38% and 0.4%
viability, T/C (compound 0.3 µM): 0.39% and 0.36% and 1.49%
pIC50 (curve of compound): 7.92 and 7.88 and 8.22

CC(C)c1c(-c2ccccc2)nc2c(C#N)c[nH]n2c1=O
viability, T/C (compound 0.0316 µM): 108% and 110% and 104%
viability, T/C (compound 0.1 µM): 95% and 105% (2×)
viability, T/C (compound 0.316 µM): 98.1% and 105% and 104%
viability, T/C (compound 1 µM): 93.7% and 93.4% and 98.7%
viability, T/C (compound 3.16 µM): 91.1% and 103% (2×)
viability, T/C (compound 10 µM): 91.9% and 98.8% and 81%
pIC50 (curve of compound): < 5.00

CC(CO)NC(=O)c1cc(-c2ccc(Cl)cc2)nn(-c2cnn(C)c2)c1=O (stereo not drawn)
pIC50 (compound alone, run of 05/31/2022): < 5.00

CC1(C)CCC(CN2CCN(c3ccc(C(=O)NS(=O)(=O)c4ccc(NCC5CCOCC5)c([N+](=O)[O-])c4)c(Oc4cnc5[nH]ccc5c4)c3)CC2)=C(c2ccc(Cl)cc2)C1
viability, T/C (compound 0.0316 µM): 104% (2×) and 108%
viability, T/C (compound 0.1 µM): 90.7% and 115% and 103%
viability, T/C (compound 0.316 µM): 90% and 103% and 106%
viability, T/C (compound 1 µM): 111% and 105% and 92.7%
viability, T/C (compound 3.16 µM): 126% and 88.2% and 84.7%
viability, T/C (compound 10 µM): 25.9% and 60.7% and 62.5%
pIC50 (curve of compound): 5.15 and < 5.00

CC1COCCN1c1cc(-c2ccnn2C)c2ccnc(-c3ccn[nH]3)c2n1 (stereo not drawn)
viability, T/C (compound 0.00316 µM): 93% and 95.6% and 116%
viability, T/C (compound 0.01 µM): 92.2% and 102% and 116%
viability, T/C (compound 0.0316 µM): 82.7% and 80.5% and 89%
viability, T/C (compound 0.1 µM): 47.8% and 48.9% and 65%
viability, T/C (compound 0.316 µM): 30.6% and 29.8% and 41.7%
viability, T/C (compound 1 µM): 27.8% and 28.6% and 29.4%
pIC50 (curve of compound): 7.03 and 6.69

CC1COCCN1c1cc(C2(S(C)(=N)=O)CC2)nc(-c2ccnc3[nH]ccc23)n1 (stereo not drawn)
viability, T/C (compound 0.0316 µM): 107% and 105% and 126%
viability, T/C (compound 0.1 µM): 98.2% and 113% and 97.1%
viability, T/C (compound 0.316 µM): 105% and 102% and 95.6%
viability, T/C (compound 1 µM): 85% and 85.7% and 89.4%
viability, T/C (compound 3.16 µM): 71.8% and 56.9% and 59.7%
viability, T/C (compound 10 µM): 37.3% and 32.7% and 45.1%
pIC50 (curve of compound): 5.19 and 5.37 and 5.12

CCN(c1cc(-c2ccc(CN3CCOCC3)cc2)cc(C(=O)NCc2c(C)cc(C)[nH]c2=O)c1C)C1CCOCC1
viability, T/C (compound 0.00949 µM): 108% and 104% and 103%
viability, T/C (compound 0.03 µM): 116% and 114% and 95.3%
viability, T/C (compound 0.0949 µM): 120% and 111% and 97.5%
viability, T/C (compound 0.3 µM): 87.1% and 95.9% and 103%
viability, T/C (compound 0.949 µM): 98.3% and 89% and 90%
viability, T/C (compound 3 µM): 101% (2×) and 87.2%
pIC50 (curve of compound): < 5.52

CC[C@@]1(O)C(=O)OCc2c1cc1n(c2=O)Cc2cc3c(CN(C)C)c(O)ccc3nc2-1
viability, T/C (compound 0.000316 µM): 107% and 108% and 98.2%
viability, T/C (compound 0.001 µM): 99.3% and 117% and 102%
viability, T/C (compound 0.00316 µM): 95.4% and 87.5% and 95.7%
viability, T/C (compound 0.01 µM): 89.1% and 80% and 82.3%
viability, T/C (compound 0.0316 µM): 77.6% and 75.8% and 57.6%
viability, T/C (compound 0.1 µM): 53.6% and 53.5% and 41.5%
pIC50 (curve of compound): < 7.00 and 7.27

CCc1c2c(nc3ccc(O)cc13)-c1cc3c(c(=O)n1C2)COC(=O)[C@]3(O)CC
viability, T/C (compound 0.000949 µM): 70.9% and 79.9% and 78.5%
viability, T/C (compound 0.003 µM): 67% and 71.9% and 67.1%
viability, T/C (compound 0.00949 µM): 58.6% and 52.8% and 65%
viability, T/C (compound 0.03 µM): 43.8% and 54.9% and 51.5%
viability, T/C (compound 0.0949 µM): 38.5% and 51% and 50.3%
viability, T/C (compound 0.3 µM): 27.5% and 39.2% and 36.9%
pIC50 (curve of compound): 7.68 and 7.32 and 7.24

COc1cc(C2c3cc4c(cc3C(OC3OC5COC(C)OC5C(O)C3O)C3COC(=O)C23)OCO4)cc(OC)c1O (stereo not drawn)
viability, T/C (compound 0.0316 µM): 106% and 96.2% and 98%
viability, T/C (compound 0.1 µM): 86.7% and 100% and 103%
viability, T/C (compound 0.316 µM): 60.8% and 83.3% and 80.6%
viability, T/C (compound 1 µM): 53.5% and 62.9% and 58.8%
viability, T/C (compound 3.16 µM): 48.5% and 51% and 43.7%
viability, T/C (compound 10 µM): 39% and 34.7% and 37.7%
pIC50 (curve of compound): 5.85 and 5.58 and 5.74

COc1cc(Nc2ncc3c(n2)-c2ccc(Cl)cc2C(c2c(F)cccc2OC)=NC3)ccc1C(=O)O
viability, T/C (compound 0.0316 µM): 97.3% and 91.9% and 85.7%
viability, T/C (compound 0.1 µM): 68.5% and 72.4% and 74.3%
viability, T/C (compound 0.316 µM): 63.9% and 60% and 69.9%
viability, T/C (compound 1 µM): 44.3% and 55.1% and 50.6%
viability, T/C (compound 3.16 µM): 52.4% and 54.8% and 52.6%
viability, T/C (compound 10 µM): 55.5% and 62.7% and 57%
pIC50 (curve of compound): < 5.00

COc1ccc([C@@H](O)c2cc(-c3ncnc4cc(N5CCOCC5)ccc34)c(F)cc2Cl)nn1
viability, T/C (compound 0.0316 µM): 107% and 86.3% and 109%
viability, T/C (compound 0.1 µM): 101% (2×) and 104%
viability, T/C (compound 0.316 µM): 96.8% and 94.6% and 105%
viability, T/C (compound 1 µM): 76% and 81.3% and 72.5%
viability, T/C (compound 3.16 µM): 63.3% and 73.9% and 71.7%
viability, T/C (compound 10 µM): 37.4% and 39.9% and 49.7%
pIC50 (curve of compound): 5.26 and 5.15 and < 5.00

From PubChem BioAssay AID1919009 (Molecular Pharmacology Branch, DTP, NCI, 2023)
